Source: patent US8309611B2, “Methods and compositions for treating lung cancer” (Golden Biotechnology Corporation, priority 2011, dated 2012)
≈ marks a conversion by molar mass, not a printed value. Like-named read-outs stand apart in the source and are kept apart here.

Key:
DMS 114 = test: MTT cell survival assay, DMS 114; assay type: cell-based; settings: Homo sapiens, 48 hours, read-out: IC50 against DMS 114
Experimental: (§1) The NCI anti-cancer drug screen model was adopted to test anti-cancer effect of the exemplary compounds from Example 1. The isolated compound 1 from Example 1 was added into the culture media of human lung-cancer cells, A549, NCI-H460, CL1-0, CL1-5 or DMS 114, to test for tumor cell survival (either by MTT assay or colony formation assay). Compounds 4, 5, 6, and 7 were used in MTT assay against A549.
(§2) A549, CL1-0, and CL1-5 cells are human lung adenocarcinoma cell lines. CL1-0 cells are minimally invasive sub-lines with low migration. CL1-5 cell line, on the other hand, is highly invasive with high migration ability. The NCI-H460 cell line is derived from human large cell lung cancer, which is one of the major types of non-small cell lung carcinoma. DMS 114 is small cell lung cancer cell line, and was obtained from the American Type Culture Collection (Manassas, Va.).
(§3) MTT assay is commonly used to determine cell proliferation, percent of viable cells, and cytotoxicity. […]
(§4) To each of the 96 well plates containing A549, NCI-H460, CL1-0, CL1-5, DMS 114 or BEAS-2B, 0.03, 0.1, 0.3, 1 and 3 μg/ml of compound 1 were add. […] The survival rate of cells was calculated based on the measurement of absorption at the 570 nm wavelength by enzyme immunoassay analyzer.

NCI-H460 = test: MTT cell survival assay, NCI-H460; assay type: cell-based; settings: Homo sapiens, 48 hours, read-out: IC50 (μg/ml), in vitro cell survival rate test, NCI-H460
Experimental: as §1, §2, §3, §4

A549 = test: MTT cell survival assay, A549; assay type: cell-based; settings: Homo sapiens
Experimental: as §1, §2
MTT assay is commonly used to determine cell proliferation, percent of viable cells, and cytotoxicity. MTT (3-[4,5-dimethylthiazol-2-yl]2,5-diphenyltetrazolium bromide) is a yellow dye, which can be absorbed by the living cells and be reduced to purplish blue formazan crystals by succinate tetrazolium reductase in mitochondria. Formazan formation can therefore be used to assess and determine the survival rate of cells.
A549, NCI-H460, CL1-0, CL1-5 and DMS 114 cells were suspended and cultured in 10% fetal bovine serum (Life Technologies Inc.) containing RPM1-1640 culture medium that also includes 1% penicillin and 1% streptomycin. Human bronchial epithelium cell line, BEAS-2B was used as a control. The BEAS-2B cell line was cultured in LHC-9 serum-free medium. All these cell lines were incubated under 5% CO2, 37° C. for 24 hours. After cell proliferation, the cells were washed once with PBS, treated with the trypsin-EDTA, and then centrifuged at 1,200 rpm for 5 minutes to separate cells from supernatant. The cells were re-suspended in fresh culture medium (10 mL) and placed in 96 well plates.
To each of the 96 well plates containing A549, NCI-H460, CL1-0, CL1-5, DMS 114 or BEAS-2B, 0.03, 0.1, 0.3, 1 and 3 μg/ml of compound 1 were add. The 96 well plates were incubated at 37° C., 5% CO2 for 48 hours. Subsequently, in the dark environment to each well of the plates were added 2.5 mg/ml of MTT. The reaction was terminated by addition of 100 ul of lysis buffer after 4 hours. The survival rate of cells was calculated based on the measurement of absorption at the 570 nm wavelength by enzyme immunoassay analyzer.

[1] = Drug distribution in organs analysis (LC/MS/MS); assay type: in vivo, CD-1 male mice; settings: CD-1 mice, iv 2 mg/Kg, 0.25-4 hours, plasma, kidney, small and large intestine
Experimental: Experiments described herein were performed on CD-1 male mice (average weight 24±2 grams, provided by BioLasco, Taiwan). The mice were injected intravenously with a solution of compound 1 in 5% ethanol and 30% PEG400 (2 mg/Kg body weight). After 0.25, 0.5, 1, 2, 4 hours of the iv injection, 0.5 ml of blood was collected via cardiac puncture. The bloods were placed in a centrifuge tube containing K-EDTA and centrifuged for 15 min at 4° C. under 1500 g to produce supernatants (plasma sample). At the same time points, lung, kidney, small intestine and large intestine of the mice were collected and preserved at −70° C. for similar analysis.
The concentration of compound 1 in various organ samples (i.e., plasma, large intestine, left kidney, lung, right kidney and small intestine) were analyzed by LC/MS/MS spectrometer (Waters Alliance 2790 LC and Micromass Quattro Ultima). For example, plasma sample was mixed with acetonitrile and then centrifuged to prepare supernatant that was analyzed by LC/MS/MS. The pharmacokinetic parameters were obtained by WinNonlin™ software by non-compartment method.

[2] = 48 hours, read-out: IC50 (μg/ml), in vitro cell survival rate test, A549

SMILES: COC1=C(OC)C(O)C(C/C=C(\C)CC/C=C(\C)CCC=C(C)C)C(C)C1=O (stereo not drawn) [Compound 1, 4-hydroxy-2,3-dimethoxy-6-methyl-5-(3,7,11-trimethyldodeca-2,6,10-trienyl)cyclohex-2-enone]
- IC50 (DMS 114): 16 µM
- IC50 (NCI-H460): 0.82 µg/mL (≈ 2.1 µM)
- IC50 (A549; [2]): 0.45 µg/mL
- Concentration in lung versus other organs (FIG. 10) [1]: significantly higher concentration than other organs

SMILES: COC1=C(O)C(O)C(C/C=C(\C)CC/C=C(\C)CCC=C(C)C)C(C)C1=O (stereo not drawn) [Compound 4, 3,4-dihydroxy-2-methoxy-6-methyl-5-(3,7,11-trimethyldodeca-2,6,10-trienyl)cyclohex-2-enone]
- IC50 (A549; [2]): 3.24 µg/mL

SMILES: COC1=C(OC)C(O)C(C/C=C(\C)CC/C=C(\C)CCCC(C)(C)O)C(C)C1=O (stereo not drawn) [Compound 5, 4-hydroxy-5-(11-hydroxy-3,7,11-trimethyldodeca-2,6-dienyl)-2,3-dimethoxy-6-methylcyclohex-2-enone]
- IC50 (A549; [2]): 13.5 µg/mL

SMILES: COC1=C(OC)C(O)C(C/C=C(\C)CCC(=O)O)C(C)C1=O (stereo not drawn) [Compound 6]
- IC50 (A549; [2]): 28 µg/mL
- IC50 (A549; read-out: IC50 on A549 (text)): 28 µM

SMILES: COC1=C(OC)C(O)C(C/C=C(\C)CC/C=C(\C)CCCC(C)(C)OC)C(C)C1=O (stereo not drawn) [Compound 7, 4-hydroxy-2,3-dimethoxy-5-(11-methoxy-3,7,11-trimethyldodeca-2,6-dienyl)-6-methylcyclohex-2-enone]
- IC50 (A549; [2]): 10.5 µg/mL
